AC50 data for eight compounds are collected here from ChEMBL document CHEMBL5291721, “A preclinical secondary pharmacology resource illuminates target-adverse drug reaction associations of marketed drugs” (Nat Commun, 2023).

The term AC50 denotes the concentration at which the activity in the assay is half-maximal. Lower therefore signals greater potency.

One test has as its target Histamine H1 receptor (Homo sapiens, UniProt P35367).
Another test concerns the target T1, Adenosine receptor A1 (Homo sapiens, UniProt P30542).
T1 sequence (P30542 whole entry): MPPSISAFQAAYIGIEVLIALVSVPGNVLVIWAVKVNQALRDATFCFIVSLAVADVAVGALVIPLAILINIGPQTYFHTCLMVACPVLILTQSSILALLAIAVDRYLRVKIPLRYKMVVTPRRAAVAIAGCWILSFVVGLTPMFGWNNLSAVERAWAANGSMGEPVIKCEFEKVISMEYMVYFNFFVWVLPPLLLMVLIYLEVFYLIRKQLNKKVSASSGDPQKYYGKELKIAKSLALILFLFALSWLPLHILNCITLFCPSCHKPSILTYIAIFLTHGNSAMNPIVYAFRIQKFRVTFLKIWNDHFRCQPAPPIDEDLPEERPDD

Test [1] deals with T2, Cholecystokinin receptor type A (Homo sapiens, UniProt P32238).
T2 sequence (P32238 whole entry): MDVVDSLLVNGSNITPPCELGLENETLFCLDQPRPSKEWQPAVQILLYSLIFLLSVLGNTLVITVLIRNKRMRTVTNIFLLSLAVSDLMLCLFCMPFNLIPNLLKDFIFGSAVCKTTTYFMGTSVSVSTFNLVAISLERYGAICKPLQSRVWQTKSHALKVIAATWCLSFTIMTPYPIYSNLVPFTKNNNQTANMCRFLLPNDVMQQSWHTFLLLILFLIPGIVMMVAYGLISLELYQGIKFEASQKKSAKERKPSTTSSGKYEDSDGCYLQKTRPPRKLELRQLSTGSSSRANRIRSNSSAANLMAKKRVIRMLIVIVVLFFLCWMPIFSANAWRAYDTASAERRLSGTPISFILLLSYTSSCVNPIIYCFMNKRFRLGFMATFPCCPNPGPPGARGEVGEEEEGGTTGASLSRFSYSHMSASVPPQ

The target in test [2] is T3, 5-hydroxytryptamine receptor 3A (Homo sapiens, UniProt P46098).
T3 sequence (P46098 whole entry): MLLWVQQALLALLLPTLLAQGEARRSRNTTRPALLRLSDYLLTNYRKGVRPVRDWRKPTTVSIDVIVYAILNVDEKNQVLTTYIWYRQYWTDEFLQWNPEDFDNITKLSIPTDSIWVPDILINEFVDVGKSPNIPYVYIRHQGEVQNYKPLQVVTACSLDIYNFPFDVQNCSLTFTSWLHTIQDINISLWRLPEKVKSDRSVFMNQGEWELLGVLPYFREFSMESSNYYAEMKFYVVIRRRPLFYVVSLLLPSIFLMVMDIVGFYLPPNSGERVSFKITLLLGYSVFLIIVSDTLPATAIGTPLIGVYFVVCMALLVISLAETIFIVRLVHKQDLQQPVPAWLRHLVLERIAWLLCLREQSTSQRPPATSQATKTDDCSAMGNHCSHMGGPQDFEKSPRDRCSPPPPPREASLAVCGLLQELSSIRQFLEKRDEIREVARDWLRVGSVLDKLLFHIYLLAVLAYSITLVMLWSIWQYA
The class given is functional.

In test [3] the target is Neuronal acetylcholine receptor subunit alpha-4 (Homo sapiens, UniProt P43681).
Test [4] concerns the target 5-hydroxytryptamine receptor 2A (Homo sapiens, UniProt P28223). The class given is functional, cell-based.
In test [5] the target is T4, Muscarinic acetylcholine receptor M2 (Homo sapiens, UniProt P08172).
T4 sequence (P08172 whole entry): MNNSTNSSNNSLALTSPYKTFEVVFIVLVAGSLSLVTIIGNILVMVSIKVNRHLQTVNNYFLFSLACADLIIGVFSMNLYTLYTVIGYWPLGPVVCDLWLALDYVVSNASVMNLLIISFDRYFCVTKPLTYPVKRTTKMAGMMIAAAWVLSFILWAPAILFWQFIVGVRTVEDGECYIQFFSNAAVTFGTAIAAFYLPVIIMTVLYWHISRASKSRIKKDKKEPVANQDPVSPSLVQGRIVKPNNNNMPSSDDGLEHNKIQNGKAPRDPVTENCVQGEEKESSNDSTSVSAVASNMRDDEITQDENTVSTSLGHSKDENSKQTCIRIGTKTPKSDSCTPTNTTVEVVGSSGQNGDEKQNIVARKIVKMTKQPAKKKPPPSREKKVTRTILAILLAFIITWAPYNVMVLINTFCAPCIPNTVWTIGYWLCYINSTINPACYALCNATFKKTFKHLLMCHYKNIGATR
The format is functional, cell-based.

The target in test [6] is T5, Equilibrative nucleoside transporter 1 (Homo sapiens, UniProt Q99808).
T5 sequence (Q99808 whole entry): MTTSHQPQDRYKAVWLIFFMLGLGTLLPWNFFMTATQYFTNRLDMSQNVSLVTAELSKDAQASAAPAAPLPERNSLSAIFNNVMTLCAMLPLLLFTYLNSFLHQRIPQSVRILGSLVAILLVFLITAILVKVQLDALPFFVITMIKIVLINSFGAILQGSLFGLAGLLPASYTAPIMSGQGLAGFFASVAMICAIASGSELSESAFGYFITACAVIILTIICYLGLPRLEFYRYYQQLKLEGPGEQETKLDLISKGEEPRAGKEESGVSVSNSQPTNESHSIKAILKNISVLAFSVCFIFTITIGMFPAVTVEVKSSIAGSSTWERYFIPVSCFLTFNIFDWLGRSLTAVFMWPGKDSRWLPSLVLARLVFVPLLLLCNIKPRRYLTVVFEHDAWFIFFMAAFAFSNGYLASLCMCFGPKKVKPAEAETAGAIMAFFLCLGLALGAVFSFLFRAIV

Test [7] deals with Delta-type opioid receptor (Homo sapiens, UniProt P41143).
The target of test [8] is T6, Type-1 angiotensin II receptor (Homo sapiens, UniProt P30556).
T6 sequence (P30556 whole entry): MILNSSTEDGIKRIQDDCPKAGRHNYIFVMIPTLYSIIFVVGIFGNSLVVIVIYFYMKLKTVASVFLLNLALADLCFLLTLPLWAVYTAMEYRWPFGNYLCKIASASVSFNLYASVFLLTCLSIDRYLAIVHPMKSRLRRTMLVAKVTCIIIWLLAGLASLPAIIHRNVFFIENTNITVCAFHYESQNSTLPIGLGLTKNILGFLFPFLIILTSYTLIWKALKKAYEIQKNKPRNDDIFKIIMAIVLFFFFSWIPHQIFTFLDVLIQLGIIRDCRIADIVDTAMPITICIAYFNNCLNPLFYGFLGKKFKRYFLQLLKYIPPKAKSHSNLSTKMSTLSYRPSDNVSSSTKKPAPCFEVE
Also: assay procedure not described here.

Chain of Neuronal acetylcholine receptor subunit alpha-4 (P43681 whole entry): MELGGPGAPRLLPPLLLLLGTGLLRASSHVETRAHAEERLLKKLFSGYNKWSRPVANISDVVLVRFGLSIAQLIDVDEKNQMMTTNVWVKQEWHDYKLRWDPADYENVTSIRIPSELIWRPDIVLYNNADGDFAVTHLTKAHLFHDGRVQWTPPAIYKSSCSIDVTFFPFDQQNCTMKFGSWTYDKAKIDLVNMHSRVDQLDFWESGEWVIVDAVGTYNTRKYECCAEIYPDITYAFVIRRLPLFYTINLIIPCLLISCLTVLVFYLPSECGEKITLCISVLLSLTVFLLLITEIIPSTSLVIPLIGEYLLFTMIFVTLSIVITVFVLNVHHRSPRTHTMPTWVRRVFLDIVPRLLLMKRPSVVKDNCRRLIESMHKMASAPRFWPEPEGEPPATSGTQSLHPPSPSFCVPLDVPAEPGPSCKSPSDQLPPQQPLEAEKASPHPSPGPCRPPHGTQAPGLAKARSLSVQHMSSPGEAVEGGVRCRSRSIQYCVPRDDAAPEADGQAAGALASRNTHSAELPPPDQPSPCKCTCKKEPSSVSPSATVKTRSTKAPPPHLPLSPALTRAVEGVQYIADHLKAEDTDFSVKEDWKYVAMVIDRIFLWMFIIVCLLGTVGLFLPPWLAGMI
Chain of Histamine H1 receptor (P35367 whole entry): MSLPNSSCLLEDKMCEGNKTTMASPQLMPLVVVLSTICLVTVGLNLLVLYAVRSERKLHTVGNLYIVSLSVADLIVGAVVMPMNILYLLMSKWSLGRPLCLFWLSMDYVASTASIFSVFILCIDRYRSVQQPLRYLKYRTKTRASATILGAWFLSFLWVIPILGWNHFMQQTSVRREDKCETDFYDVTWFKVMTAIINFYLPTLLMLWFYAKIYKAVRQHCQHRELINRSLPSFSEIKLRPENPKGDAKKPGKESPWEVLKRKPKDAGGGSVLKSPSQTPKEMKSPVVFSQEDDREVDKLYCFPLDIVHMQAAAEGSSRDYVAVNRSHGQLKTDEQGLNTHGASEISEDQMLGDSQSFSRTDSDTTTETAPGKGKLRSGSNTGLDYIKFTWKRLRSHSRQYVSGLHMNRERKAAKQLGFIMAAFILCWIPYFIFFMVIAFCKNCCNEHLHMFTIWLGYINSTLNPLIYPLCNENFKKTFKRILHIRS
Chain of 5-hydroxytryptamine receptor 2A (P28223 whole entry): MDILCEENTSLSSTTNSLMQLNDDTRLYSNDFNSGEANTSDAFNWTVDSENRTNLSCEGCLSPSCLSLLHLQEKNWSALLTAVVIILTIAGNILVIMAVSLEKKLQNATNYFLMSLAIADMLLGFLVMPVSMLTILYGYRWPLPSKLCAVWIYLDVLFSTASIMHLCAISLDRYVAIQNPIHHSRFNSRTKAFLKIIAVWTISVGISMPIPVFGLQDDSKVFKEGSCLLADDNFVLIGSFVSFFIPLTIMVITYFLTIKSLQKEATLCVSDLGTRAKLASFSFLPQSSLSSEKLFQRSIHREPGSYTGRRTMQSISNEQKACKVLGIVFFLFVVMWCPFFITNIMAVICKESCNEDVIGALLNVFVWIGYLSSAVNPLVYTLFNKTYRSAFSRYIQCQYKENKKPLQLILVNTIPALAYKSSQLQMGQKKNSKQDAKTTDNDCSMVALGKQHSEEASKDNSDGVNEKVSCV
Chain of Delta-type opioid receptor (P41143 whole entry): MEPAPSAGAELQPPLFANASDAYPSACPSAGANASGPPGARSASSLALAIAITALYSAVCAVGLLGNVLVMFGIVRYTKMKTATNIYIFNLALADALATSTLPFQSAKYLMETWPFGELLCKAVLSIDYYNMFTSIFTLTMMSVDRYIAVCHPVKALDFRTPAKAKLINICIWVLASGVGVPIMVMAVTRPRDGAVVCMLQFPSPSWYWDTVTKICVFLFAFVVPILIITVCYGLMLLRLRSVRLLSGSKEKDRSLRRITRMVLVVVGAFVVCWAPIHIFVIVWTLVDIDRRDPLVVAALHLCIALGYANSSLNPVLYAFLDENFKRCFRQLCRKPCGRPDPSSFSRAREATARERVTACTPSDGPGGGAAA

As to `C=CCC1(C(C)CC)C(=O)NC(=O)NC1=O` (stereo not given) [TALBUTAL], the concentration at half-maximal activity (AC50) at Histamine H1 receptor is more than 10 µM; at Adenosine receptor A1, more than 10 µM; in test [1], more than 10 µM; in test [2], more than 30 µM; in test [3], more than 10 µM; in test [4], more than 10 µM. Moreover, the AC50 in test [5] was more than 10 µM; in test [6], more than 10 µM; in [7], more than 30 µM; in test [8], more than 10 µM.

For `CN1C(=O)C(O)N=C(c2ccccc2)c2cc(Cl)ccc21` (stereo not given) [TEMAZEPAM], the AC50 was more than 10 µM at Histamine H1 receptor; more than 30 µM on Adenosine receptor A1; more than 30 µM in test [1]; more than 30 µM in [2]; more than 10 µM in [3]; more than 30 µM in [4]. For the same compound, the AC50 in test [5] was more than 10 µM; in test [6], more than 30 µM; in test [7] it was more than 30 µM; in test [8] it was more than 30 µM.

Regarding `CCN(CC)C(=O)N[C@H]1C[C@@H]2c3cccc4[nH]cc(c34)C[C@H]2N(C)C1` [TERGURIDE], the AC50 is 2.1 µM at Histamine H1 receptor; more than 30 µM on Adenosine receptor A1; more than 30 µM in [1]; more than 30 µM in test [2]; more than 30 µM in test [3]; 0.48 µM in test [4]. Moreover, the AC50 in [5], in test [6], in test [7] and in test [8] was more than 30 µM in each case.

Regarding `C/C(O)=C(\C#N)C(=O)Nc1ccc(C(F)(F)F)cc1` [TERIFLUNOMIDE], the half-maximal activity concentration (AC50) (at Histamine H1 receptor; on Adenosine receptor A1; in [1]; in test [2]; in test [3]; in test [4]) was more than 30 µM throughout. Moreover, the AC50 in [5], in test [6], in [7] and in [8] was more than 30 µM in each case.

With `CC(CC(c1ccccc1)c1ccccc1)NC(C)(C)C` (stereo not given) [TERODILINE], the half-maximal activity concentration (AC50) at Histamine H1 receptor is 0.76 µM; at Adenosine receptor A1, more than 30 µM; in test [1], more than 30 µM; in test [2], more than 30 µM; in test [3], more than 30 µM; in [4] it was more than 30 µM. In addition, the AC50 in test [5] was 3.1 µM; in [6], more than 30 µM; in test [7], more than 30 µM; in [8], more than 30 µM.

As for `C=CCN1CCCC1CNC(=O)c1cc(S(N)(=O)=O)cc(OC)c1OC` (stereo not given) [VERALIPRIDE], the concentration at half-maximal activity (AC50) (at Histamine H1 receptor; on Adenosine receptor A1; in test [1]; in [2]; in test [3]; in test [4]) was more than 30 µM throughout. In addition, the concentration at half-maximal activity (AC50) in [5], in test [6], in test [7] and in [8] was more than 30 µM each time.

Turning to `O=C(NCCNCC(O)COc1ccc(O)cc1)N1CCOCC1` (stereo not given) [XAMOTEROL], the AC50 (at Histamine H1 receptor; on Adenosine receptor A1; in test [1]; in test [2]; in test [3]; in test [4]) was more than 30 µM each time. Further, the AC50 in test [5], in test [6], in test [7] and in test [8] was more than 30 µM in each case.

As for `C[C@H](CSC(=O)c1ccccc1)C(=O)N1C[C@@H](Sc2ccccc2)C[C@H]1C(=O)O` [ZOFENOPRIL], the concentration at half-maximal activity (AC50) on Histamine H1 receptor was more than 10 µM; at Adenosine receptor A1 it was more than 10 µM; in test [1] it was more than 10 µM; in test [2] it was more than 30 µM; in test [3], more than 10 µM; in test [4], more than 10 µM. The AC50 in test [5] was more than 10 µM; in [6], more than 10 µM; in [7], more than 30 µM; in test [8], more than 10 µM.
